# PubChem BioAssay AID2060910 (Molecular Pharmacology Branch, DTP, NCI, 2025)
# System: 242566-281-R-J2-PDC complex spheroid viability
# Test: Anticancer human tumor 242566-281-R-J2-PDC patient-derived pancreatic carcinoma cell line growth inhibition [RAS]
# Conditions: for viability, T/C: stronger effect = lower value
# Method in brief: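 Tumour cells grown as complex spheroids with HUVEC endothelial cells and mesenchymal stem cells, treated with RAS pathway inhibitor combinations. Each agent spans half-log steps from near clinical Cmax, or 10 microM where Cmax is unknown.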
# [1] = curve of first compound, second compound 0.0316 µM
# [2] = curve of first compound, second compound 0.1 µM
# [3] = curve of first compound, second compound 0.316 µM
# [4] = curve of first compound, second compound 1 µM
# [5] = second compound 0.0316 µM, first compound 0.0316 µM
# [6] = second compound 0.0316 µM, first compound 0.1 µM
# [7] = second compound 0.0316 µM, first compound 0.316 µM
# [8] = second compound 0.0316 µM, first compound 1 µM
# [9] = second compound 0.1 µM, first compound 0.0316 µM
# [10] = second compound 0.1 µM, first compound 0.1 µM
# [11] = second compound 0.1 µM, first compound 0.316 µM
# [12] = second compound 0.1 µM, first compound 1 µM
# [13] = second compound 0.316 µM, first compound 0.0316 µM
# [14] = second compound 0.316 µM, first compound 0.1 µM
# [15] = second compound 0.316 µM, first compound 0.316 µM
# [16] = second compound 0.316 µM, first compound 1 µM
# [17] = second compound 1 µM, first compound 0.0316 µM
# [18] = second compound 1 µM, first compound 0.1 µM
# [19] = second compound 1 µM, first compound 0.316 µM
# [20] = second compound 1 µM, first compound 1 µM
# 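Note: spheroids exposed to compound for 7 days before readout.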
# 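Throughout, for viability, T/C: 100% = DMSO vehicle control wells.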
smiles,measurement,setting,value
CCC(CC)c1cc(NC2CCC(N)C2)n2nccc2n1 (stereo unspecified) + C#Cc1c(F)ccc2cc(O)cc(-c3ncc4c(N5CC6CCC(C5)N6)nc(OCC56CCCN5CC(F)C6)nc4c3F)c12,IC50,[1],2.61 µM
same,IC50,[2],1.89 µM
same,IC50,[3],1.45 µM
same,IC50,[4],0.893 µM
same,IC50,"curve of first compound, second compound 3.16 µM",1.22 µM
same,IC50,"curve of first compound, second compound 10 µM",1.17 µM
same,"viability, T/C",[5],85.9%
same,"viability, T/C",[6],109%
same,"viability, T/C",[7],107%
same,"viability, T/C",[8],88.9%
same,"viability, T/C","second compound 0.0316 µM, first compound 3.16 µM",42.2%
same,"viability, T/C","second compound 0.0316 µM, first compound 10 µM",1.05%
same,"viability, T/C",[9],79.1%
same,"viability, T/C",[10],92.1%
same,"viability, T/C",[11],84.7%
same,"viability, T/C",[12],69.3%
same,"viability, T/C","second compound 0.1 µM, first compound 3.16 µM",33.9%
same,"viability, T/C","second compound 0.1 µM, first compound 10 µM",0.89%
same,"viability, T/C",[13],83.6%
same,"viability, T/C",[14],85.5%
same,"viability, T/C",[15],73.3%
same,"viability, T/C",[16],63.4%
same,"viability, T/C","second compound 0.316 µM, first compound 3.16 µM",26.3%
same,"viability, T/C","second compound 0.316 µM, first compound 10 µM",0.98%
same,"viability, T/C",[17],68.2%
same,"viability, T/C",[18],67.6%
same,"viability, T/C",[19],58.5%
same,"viability, T/C",[20],50.6%
same,"viability, T/C","second compound 1 µM, first compound 3.16 µM",14.8%
same,"viability, T/C","second compound 1 µM, first compound 10 µM",0.85%
same,"viability, T/C","second compound 3.16 µM, first compound 0.0316 µM",58%
same,"viability, T/C","second compound 3.16 µM, first compound 0.1 µM",60.2%
same,"viability, T/C","second compound 3.16 µM, first compound 0.316 µM",56.1%
same,"viability, T/C","second compound 3.16 µM, first compound 1 µM",58.6%
same,"viability, T/C","second compound 3.16 µM, first compound 3.16 µM",11.1%
same,"viability, T/C","second compound 3.16 µM, first compound 10 µM",0.86%
same,"viability, T/C","second compound 10 µM, first compound 0.0316 µM",59.8%
same,"viability, T/C","second compound 10 µM, first compound 0.1 µM",54.8%
same,"viability, T/C","second compound 10 µM, first compound 0.316 µM",52.3%
same,"viability, T/C","second compound 10 µM, first compound 1 µM",58.1%
same,"viability, T/C","second compound 10 µM, first compound 3.16 µM",11.5%
same,"viability, T/C","second compound 10 µM, first compound 10 µM",0.55%
CCN1CCN(Cc2ccc(Nc3ncc(F)c(-c4cc(F)c5nc(C)n(C(C)C)c5c4)n3)nc2)CC1 + C=CC(=O)N1CCN(c2nc(OCC3CCCN3C)nc3c(F)c(-c4nc(N)cc(C)c4C(F)(F)F)c(Cl)cc23)C(C)C1,IC50,"curve of first compound, second compound 0.00316 µM",> 1 µM
same,IC50,"curve of first compound, second compound 0.01 µM",> 1 µM
same,IC50,[1],> 1 µM
same,IC50,[2],> 1 µM
same,IC50,[3],> 1 µM
same,IC50,[4],> 1 µM
same,"viability, T/C","second compound 0.00316 µM, first compound 0.00316 µM",121%
same,"viability, T/C","second compound 0.00316 µM, first compound 0.01 µM",135%
same,"viability, T/C","second compound 0.00316 µM, first compound 0.0316 µM",100%
same,"viability, T/C","second compound 0.00316 µM, first compound 0.1 µM",90.5%
same,"viability, T/C","second compound 0.00316 µM, first compound 0.316 µM",123%
same,"viability, T/C","second compound 0.00316 µM, first compound 1 µM",167%
same,"viability, T/C","second compound 0.01 µM, first compound 0.00316 µM",95.2%
same,"viability, T/C","second compound 0.01 µM, first compound 0.01 µM",160%
same,"viability, T/C","second compound 0.01 µM, first compound 0.0316 µM",101%
same,"viability, T/C","second compound 0.01 µM, first compound 0.1 µM",88.8%
same,"viability, T/C","second compound 0.01 µM, first compound 0.316 µM",127%
same,"viability, T/C","second compound 0.01 µM, first compound 1 µM",154%
same,"viability, T/C","second compound 0.0316 µM, first compound 0.00316 µM",104%
same,"viability, T/C","second compound 0.0316 µM, first compound 0.01 µM",120%
same,"viability, T/C",[5],102%
same,"viability, T/C",[6],108%
same,"viability, T/C",[7],131%
same,"viability, T/C",[8],169%
same,"viability, T/C","second compound 0.1 µM, first compound 0.00316 µM",115%
same,"viability, T/C","second compound 0.1 µM, first compound 0.01 µM",136%
same,"viability, T/C",[9],97.9%
same,"viability, T/C",[10],89.3%
same,"viability, T/C",[11],130%
same,"viability, T/C",[12],167%
same,"viability, T/C","second compound 0.316 µM, first compound 0.00316 µM",98.1%
same,"viability, T/C","second compound 0.316 µM, first compound 0.01 µM",134%
same,"viability, T/C",[13],94.5%
same,"viability, T/C",[14],99.9%
same,"viability, T/C",[15],154%
same,"viability, T/C",[16],154%
same,"viability, T/C","second compound 1 µM, first compound 0.00316 µM",94.2%
same,"viability, T/C","second compound 1 µM, first compound 0.01 µM",136%
same,"viability, T/C",[17],94.9%
same,"viability, T/C",[18],96.8%
same,"viability, T/C",[19],138%
same,"viability, T/C",[20],160%
CCn1c(-c2cc(N3CCN(C)CC3)cnc2C(C)OC)c2c3cc(ccc31)-c1csc(n1)CC(NC(=O)C1CC1C)C(=O)N1CCCC(N1)C(=O)OCC(C)(C)C2 (stereo unspecified),"viability, T/C",compound 0.000949 µM,93.7% [middle of 8 runs]
same,"viability, T/C",compound 0.003 µM,76.4% [middle of 8 runs]
same,"viability, T/C",compound 0.00949 µM,49% [middle of 8 runs]
same,"viability, T/C",compound 0.03 µM,31.3% [middle of 8 runs]
same,"viability, T/C",compound 0.0949 µM,23.8% [middle of 8 runs]
same,"viability, T/C",compound 0.3 µM,21.6% [middle of 8 runs]
same,IC50,"compound alone, run of 07/09/2024",9.34 nM [middle of 8 runs]
